Here are results for one compound from PMC10714182 (JACC: Basic to Translational Science, 2023).

For experiment [1], the target named is T1, 5-HT2B (Homo sapiens, UniProt P41595). In words: 5-HT2B functional readouts. The conditions noted are these: calcium mobilization and G protein dissociation (BRET2). Type of experiment: cell-based.
Experiment [2] concerns Sugen-hypoxia (Su/Hx) mouse model of PAH. The experiment can be described thus: Sugen-hypoxia experimental PAH, interventional study. Type of experiment: in vivo, C57BL/6 mice. The conditions noted are these: intervention, treatment for 2 weeks after 2 weeks of PAH induction.
Experiment [3] deals with T1, 5-HT2B. The conditions noted are these: read-out: previously reported IC50; cited from earlier work.
Experiment [4] has as its system Sugen-hypoxia (Su/Hx) mouse model of PAH. In words: Sugen-hypoxia experimental PAH, prevention study. Type of experiment: in vivo, C57BL/6 mice.

Broadly, the IC50 is the concentration at which inhibition is half-maximal.

T1 sequence (P41595 whole entry): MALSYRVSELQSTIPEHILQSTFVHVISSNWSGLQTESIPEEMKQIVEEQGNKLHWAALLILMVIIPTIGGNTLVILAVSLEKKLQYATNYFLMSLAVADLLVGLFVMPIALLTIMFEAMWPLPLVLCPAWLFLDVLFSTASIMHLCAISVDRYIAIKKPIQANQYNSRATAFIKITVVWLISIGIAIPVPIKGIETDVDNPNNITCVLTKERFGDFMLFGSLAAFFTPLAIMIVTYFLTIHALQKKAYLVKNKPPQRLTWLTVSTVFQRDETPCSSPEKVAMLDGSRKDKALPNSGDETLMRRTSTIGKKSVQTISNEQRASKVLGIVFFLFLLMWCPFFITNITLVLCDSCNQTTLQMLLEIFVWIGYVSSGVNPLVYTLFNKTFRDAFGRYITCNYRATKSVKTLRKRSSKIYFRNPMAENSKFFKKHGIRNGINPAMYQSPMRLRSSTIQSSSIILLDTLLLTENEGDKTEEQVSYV

For the compound `Cc1cc(NC(=O)Nc2ccc3c(ccn3C)c2)sn1` [SB204741, N-(1-methyl-5-indolyl)-N'-(3-methyl-5-isothiazolyl)urea], at 5-HT2B [1], the “behaviour in 5-HT2B functional readouts” value was “true antagonist”. Moreover, the “number of partially and fully muscularized small vessels (0-25 μm)” value is “reduced the number of partially, but not fully, muscularized small vessels” in experiment [2]; “reduced the number of both partially and fully muscularized small vessels” in experiment [4] (treatment before induction of experimental PAH). Moreover, at 5-HT2B [3], the IC50 is 39.3 nM. Also, in experiment [4] (osmotic pump 3 weeks, SB204741 1 mg/kg/d, VU6047534 10 mg/kg/d), the “RVSP vs vehicle control-treated Su/Hx mice” value was “significantly reduced”.
